In US20110172147A1, “NEUROPEPTIDE-2 RECEPTOR (Y-2R) AGONISTS” (priority 2009, published 2011) one finds NPY release and EC50 data, which are given here for three molecules.

A value given as a limit tells only on which side of the number the result lay.

As a reminder, the EC50 is the concentration at which the effect is half-maximal. A low value points to higher potency in that assay.

The test system of assay [1] is hypothalamic slices. Conditions: hypothalamic slices in vitro; cited from earlier work.
Assay [2] has as its target Y4R (Homo sapiens, UniProt P50391). Kind of assay: CaFlux Assay (FLIPR), Y4R. Type of assay: cell-based.
Assay [3] addresses T1, hNPY2R (Homo sapiens, UniProt P49146).
T1 sequence (P49146 1-381): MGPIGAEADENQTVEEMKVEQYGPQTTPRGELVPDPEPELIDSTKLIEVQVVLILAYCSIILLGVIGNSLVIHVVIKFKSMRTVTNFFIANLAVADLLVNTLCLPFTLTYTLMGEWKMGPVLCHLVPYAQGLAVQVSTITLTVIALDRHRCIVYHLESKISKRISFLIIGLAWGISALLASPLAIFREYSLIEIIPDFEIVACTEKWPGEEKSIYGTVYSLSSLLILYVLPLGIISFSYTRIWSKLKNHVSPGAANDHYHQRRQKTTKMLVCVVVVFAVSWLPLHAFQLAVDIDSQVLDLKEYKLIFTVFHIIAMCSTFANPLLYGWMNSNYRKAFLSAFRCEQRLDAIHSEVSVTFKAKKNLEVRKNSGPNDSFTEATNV
Kind of assay: cAMP Agonist Assay, HEK293/hNPY2R. Type of assay: cell-based. Details: expressed in transfected cells; host or cells: HEK293/hNPY2R (G418 selection). An outline of the steps:
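HEK293/hNPY2R cells (10,000/well, overnight) stimulated 30 min at room temperature with compound plus 5 μM forskolin and 0.5 mM IBMX (1.1% DMSO final). Lysate cAMP measured by competitive chemiluminescent ELISA (AP conjugate, CSPD substrate); quadruplicates.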

Assay [4] has as its target T2, Y1R (Homo sapiens, UniProt P25929).
T2 sequence (P25929 1-384): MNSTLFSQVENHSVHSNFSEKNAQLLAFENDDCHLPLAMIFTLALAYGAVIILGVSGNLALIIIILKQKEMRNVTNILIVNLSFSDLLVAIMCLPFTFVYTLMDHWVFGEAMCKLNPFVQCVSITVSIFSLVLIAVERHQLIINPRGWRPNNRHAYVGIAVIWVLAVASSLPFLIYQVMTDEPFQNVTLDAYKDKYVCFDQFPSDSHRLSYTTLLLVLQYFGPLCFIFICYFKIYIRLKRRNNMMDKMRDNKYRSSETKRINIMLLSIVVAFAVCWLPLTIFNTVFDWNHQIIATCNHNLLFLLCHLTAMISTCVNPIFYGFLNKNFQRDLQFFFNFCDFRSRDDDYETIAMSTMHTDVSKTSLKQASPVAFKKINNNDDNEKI
The experiment in a line: CaFlux Assay (FLIPR), Y1R. It counts as cell-based.

The target of assay [5] is T3, Y5R (Homo sapiens, UniProt Q15761).
T3 sequence (Q15761 1-445): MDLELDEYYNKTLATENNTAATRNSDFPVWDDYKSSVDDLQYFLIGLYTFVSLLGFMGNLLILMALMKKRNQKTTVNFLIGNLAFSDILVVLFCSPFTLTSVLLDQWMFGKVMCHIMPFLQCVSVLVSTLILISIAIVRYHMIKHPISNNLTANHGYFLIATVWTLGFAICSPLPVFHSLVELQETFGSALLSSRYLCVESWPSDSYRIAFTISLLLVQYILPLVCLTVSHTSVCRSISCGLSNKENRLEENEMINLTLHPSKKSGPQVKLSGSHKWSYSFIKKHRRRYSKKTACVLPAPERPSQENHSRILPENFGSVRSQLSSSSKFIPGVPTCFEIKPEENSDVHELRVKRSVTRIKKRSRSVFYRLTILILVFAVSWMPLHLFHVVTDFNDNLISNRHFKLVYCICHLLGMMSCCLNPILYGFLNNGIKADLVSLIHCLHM
The experiment in a line: CaFlux Assay (FLIPR), Y5R. It counts as cell-based.

For assay [6], the target named is T1, hNPY2R. The experiment in a line: CaFlux Assay (FLIPR), Y2R. It counts as cell-based. Details: expressed in transfected cells; host or cells: HEK-293 stably transfected with G protein chimera Gαqi9. An outline of the steps: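 Calcium flux read by FLIPR in HEK-293 clones co-expressing chimeric Gαqi9 and receptor; compounds in HBSS/20 mM HEPES/0.05% BSA. Baseline-subtracted peak fluorescence, monitored 100 s after addition, is reported relative to the positive control's maximal response.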

Sequence of Y4R (P50391 whole entry): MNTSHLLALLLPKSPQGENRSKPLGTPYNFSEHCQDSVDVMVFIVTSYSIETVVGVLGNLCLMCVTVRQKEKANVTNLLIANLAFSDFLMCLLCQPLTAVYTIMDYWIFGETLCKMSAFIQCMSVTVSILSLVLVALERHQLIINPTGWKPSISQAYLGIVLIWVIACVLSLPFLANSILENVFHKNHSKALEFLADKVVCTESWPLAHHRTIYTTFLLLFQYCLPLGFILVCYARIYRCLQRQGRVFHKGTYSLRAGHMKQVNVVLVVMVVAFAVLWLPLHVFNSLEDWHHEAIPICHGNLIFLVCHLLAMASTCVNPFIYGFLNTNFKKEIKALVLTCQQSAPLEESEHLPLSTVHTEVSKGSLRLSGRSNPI

As for `N=C(N)NCCC[C@H](NC(=O)CC1(CC(=O)N2CCN(C3c4ccccc4NC(=O)c4ccccc43)CC2)CCCC1)C(=O)NCCn1c(=O)n(-c2ccccc2)n(-c2ccccc2)c1=O` (some centres unmarked) [BIIE0246], the NPY release entry in assay [1] was “increases NPY release”.

On to `CCCCCCCCCCCCCCCCCCCC(=O)N[C@@H](CCC(=O)O)C(=O)N[C@@H](CCC(=O)O)C(=O)N[C@H](C(=O)N[C@@H](CCCCNC(=O)CCOCCOCCOCCOCCOCCOCCOCCOCCOCCOCCOCCOCCOCCOCCOCCOCCOCCOCCOCCOCCOCCOCCOCCOC)C(=O)N1CCN(c2ccc3ncn(CC(=O)N[C@@H](CCCNC(=N)N)C(=O)N[C@@H](Cc4c[nH]cn4)C(=O)N[C@@H](Cc4ccc(O)cc4)C(=O)N[C@@H](CC(C)C)C(=O)N[C@@H](CC(N)=O)C(=O)N[C@@H](Cc4c[nH]c5ccccc45)C(=O)N[C@H](C(=O)N[C@H](C(=O)N[C@@H](CCCNC(=N)N)C(=O)N[C@@H](CCC(N)=O)C(=O)N(C)[C@@H](CCCNC(=N)N)C(=O)N[C@@H](Cc4ccc(O)cc4)C(N)=O)[C@@H](C)O)C(C)C)c(=O)c3c2)CC1)[C@@H](C)CC` [Example 52], for which the EC50 in assay [2] was greater than 9000 nM; in assay [3] it was 0.2 nM; in assay [4] it was greater than 9000 nM; in assay [5], 4260 nM; in assay [6], 0.147 nM.

As for `CCCCCCCCCCCCCCCCCCCC(=O)N[C@@H](CCC(=O)O)C(=O)N[C@@H](CCC(=O)O)C(=O)N[C@H](C(=O)N[C@@H](CCCCNC(=O)CCOCCOCCOCCOCCOCCOCCOCCOCCOCCOCCOCCOCCOCCOCCOCCOC)C(=O)N1CCN(c2ccc3ncn(CC(=O)N[C@@H](CCCNC(=N)N)C(=O)N[C@@H](Cc4c[nH]cn4)C(=O)N[C@@H](Cc4ccc(O)cc4)C(=O)N[C@@H](CC(C)C)C(=O)N[C@@H](CC(N)=O)C(=O)N[C@@H](Cc4c[nH]c5ccccc45)C(=O)N[C@H](C(=O)N[C@H](C(=O)N[C@@H](CCCNC(=N)N)C(=O)N[C@@H](CCC(N)=O)C(=O)N(C)[C@@H](CCCNC(=N)N)C(=O)N[C@@H](Cc4ccc(O)cc4)C(N)=O)[C@@H](C)O)C(C)C)c(=O)c3c2)CC1)[C@@H](C)CC` [Example 48], the EC50 in assay [2] is greater than 9000 nM; in assay [3], 0.52 nM; in assay [4], greater than 9000 nM; in assay [5], 4320 nM; in assay [6], 0.388 nM.
